The assay deals with human sphingosine kinase 1 (hSK1) (Homo sapiens, UniProt Q9NYA1). Put plainly: sphingosine kinase 1 assay with fluoresceinated sphingosine, barium acetate/ethanol precipitation of fluoresceinated S1P, fluorescence readout. The class given is biochemical. The note with it: 100 μM inhibitor; 4 μM sphingosine fluoresceine; 500 μM ATP; 1 h at 37° C. The text has this:
Sphingosine is phosphorylated at the non-polar end by the enzymes sphingosine kinase 1 and sphingosine kinase 2, to form sphingosine-1-phosphate (S1P). S1P is an important signaling molecule, and serves in particular as a major regulator of vascular and immune systems. See, e.g., Lloyd-Evans et al., Nat. Med. 14:1247-1255 (2008); Ryu et al., EMBO J. 25:5840-5851 (2006); Maceyka et al., J. Lipid Res. 50:S272-S276 (2009); Peterson et al., Proc. Natl. Acad. Sci. USA 105:20764-20769; and U.S. Pat. No. 6,730,480. Thus, the detection of S1P and the sphingosine kinases is important for the understanding of the various systems that S1P influences. Current methods for separating sphingosine from S1P generally use chromatographic, electrophoretic or spectrometric methods. See, e.g., Bandhuvula et al., Biochem. Biophys. Res. Commun. 380:366-370 (2009); Lee et al., Anal. Chem. 80:1620-1627 (2008); Jin et al., Arch. Pharm. […]
The S1P formed by the enzyme was then precipitated in the reaction mix by the addition of 5 μl of 1 M barium acetate+300 μL of 100% ethanol, followed by 30 min incubation on ice. […] The eluted fluoresceinated S1P was quantified by measuring intensity of fluorescence. Preliminary studies established that the two wash steps were sufficient to remove essentially the entire quantity of unprecipitated sphingosine fluorescein. […]

These results are taken from patent US11874281B2, “Assays for detecting modified compounds” (Enzo Life Sciences, Inc., priority 2010, dated 2024).

SMILES strings stand for the structures.

Chain of human sphingosine kinase 1 (hSK1) (Q9NYA1 whole entry): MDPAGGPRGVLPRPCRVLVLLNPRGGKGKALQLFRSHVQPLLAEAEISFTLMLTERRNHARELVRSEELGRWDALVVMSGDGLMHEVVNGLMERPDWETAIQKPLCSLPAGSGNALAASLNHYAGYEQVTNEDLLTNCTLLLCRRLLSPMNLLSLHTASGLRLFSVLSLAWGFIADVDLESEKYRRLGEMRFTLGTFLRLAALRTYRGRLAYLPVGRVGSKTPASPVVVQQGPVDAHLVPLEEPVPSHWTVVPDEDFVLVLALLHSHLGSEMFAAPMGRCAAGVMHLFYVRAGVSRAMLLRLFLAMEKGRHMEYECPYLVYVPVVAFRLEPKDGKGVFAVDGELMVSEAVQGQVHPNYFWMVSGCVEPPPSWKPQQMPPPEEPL

Take `CCCCCCCCCCCCC/C=C/[C@@H](O)[C@@H](N)CO` [D/L sphingosine]: the “inhibition of hSK1 (precipitation of the fluoresceinated product, FIG. 6)” value is “caused less precipitation of the fluoresceinated product”.
`CCCCCCCCCCCCC/C=C/[C@@H](O)[C@H](CO)N(C)C` [DMS, dimethylsphingosine]: the “inhibition of hSK1 (precipitation of the fluoresceinated product, FIG. 6)” value was “caused less precipitation of the fluoresceinated product”.
